Source: patent US20060069132A1, “Azolecarboxamide herbicides” (priority 2004, published 2006)

Columns and labels:
[1] = test system: small flower umbrella sedge; test: Test B flooded paddy test; type: in vivo, Cyperus difformis; conditions: 1000 g ai/ha, visual rating, scale 0 to 100 (0 no effect, 100 complete control), 13 to 15 days
Summary of the method: (§1)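 Each value is a visual 0–100 response rating taken against controls 13 to 15 days after treatment in the greenhouse. Plants received formulated chemical postemergence at the 1- to 4-leaf stage or, in flooded paddy, at the 2-leaf stage.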

large crabgrass [2] = test: Test A pre-/postemergence herbicide test; type: in vivo, Digitaria sanguinalis
Summary of the method: (§2)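 Pre: seeded sandy loam, directed soil spray, compound in non-phytotoxic solvent + surfactant. Post: 1–2-leaf plants (2–10 cm), sprayed to runoff. Greenhouse ~10 d; visual injury vs untreated, 0–100 scale.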

velvetleaf [3] = test: Test B pre-/postemergence herbicide test; type: in vivo, Abutilon theophrasti
Summary of the method: (§3)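 Evaluation is visual, comparing treated with control plants on a scale where 0 means no effect and 100 means full control. Treatments were preemergence, or postemergence on seedlings 2–18 cm tall, and held 13–15 days in the greenhouse.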

wheat = test: Test B postemergence herbicide test; type: in vivo, Triticum aestivum; design: key to Wheat plant response rating: 0 = no effect, 100 = complete control; conditions: scale 0 (no effect) to 100 (complete control)
Summary of the method: (§4)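 Read-out: visual comparison with controls, scored 0 to 100, where 100 means complete control and 0 no effect. Formulated chemicals were applied postemergence to plants 2–18 cm tall (1- to 4-leaf), or to flooded-paddy plants at the 2-leaf stage, then held 13 to 15 days under glass.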

redroot pigweed = test: Test A pre-/postemergence herbicide test; type: in vivo, Amaranthus retroflexus
Summary of the method: as §2

lambsquarters = test: Test B pre-/postemergence herbicide test; type: in vivo, Chenopodium album
Summary of the method: as §3

corn = test: Test B pre-/postemergence herbicide test; type: in vivo, Zea mays
Summary of the method: as §3

ducksalad = test: Test B flooded paddy test; type: in vivo, Heteranthera limosa; conditions: 1000 g ai/ha, visual rating, scale 0 to 100 (0 no effect, 100 complete control), 13 to 15 days
Summary of the method: as §1

pigweed = test: Test B pre-/postemergence herbicide test; type: in vivo, Amaranthus retroflexus
Summary of the method: as §3

barnyardgrass [4] = test: Test A pre-/postemergence herbicide test; type: in vivo, Echinochloa crus-galli
Summary of the method: as §2

rice [5] = test: Test B pre-/postemergence herbicide test; type: in vivo, Oryza sativa; conditions: preemergence, 125 g ai/ha; 0 to 100 scale, 0 is no effect, 100 is complete control
Summary of the method: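 Plants compared with untreated controls 13–15 days post-treatment and given a visual 0–100 injury score. Applications: preemergence to seeds; postemergence at 1- to 4-leaf (2–18 cm); paddy species flooded, 2-leaf stage. Vehicle non-phytotoxic, surfactant included.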

barnyardgrass [6] = test: Test B pre-/postemergence herbicide test; type: in vivo, Echinochloa crus-galli
Summary of the method: as §3

barnyardgrass [7] = test: Test B flooded paddy test; type: in vivo, Echinochloa crus-galli; conditions: 1000 g ai/ha, visual rating, scale 0 to 100 (0 no effect, 100 complete control), 13 to 15 days
Summary of the method: as §1

rice [8] = test: Test B flooded paddy test; type: in vivo, Oryza sativa; conditions: 1000 g ai/ha, visual rating, scale 0 to 100 (0 no effect, 100 complete control), 13 to 15 days
Summary of the method: as §1

morningglory [9] = test: Test A pre-/postemergence herbicide test; type: in vivo, Ipomoea spp.
Summary of the method: as §2

blackgrass = test: Test B postemergence herbicide test; type: in vivo, Alopecurus myosuroides; conditions: scale 0 (no effect) to 100 (complete control)
Summary of the method: as §1

morningglory [10] = test: Test B pre-/postemergence herbicide test; type: in vivo, Ipomoea coccinea
Summary of the method: as §3

cocklebur = test: Test B pre-/postemergence herbicide test; type: in vivo, Xanthium strumarium
Summary of the method: as §3

giant foxtail [11] = test: Test A pre-/postemergence herbicide test; type: in vivo, Setaria faberi
Summary of the method: as §2

large crabgrass [12] = test: Test B pre-/postemergence herbicide test; type: in vivo, Digitaria sanguinalis
Summary of the method: as §3

velvetleaf [13] = test: Test A pre-/postemergence herbicide test; type: in vivo, Abutilon theophrasti
Summary of the method: as §2

Surinam grass = test: Test B pre-/postemergence herbicide test; type: in vivo, Urochloa decumbens
Summary of the method: as §3

giant foxtail [14] = test: Test B pre-/postemergence herbicide test; type: in vivo, Setaria faberi
Summary of the method: as §3

wild oat = test: Test B postemergence herbicide test; type: in vivo, Avena fatua; conditions: scale 0 (no effect) to 100 (complete control)
Summary of the method: as §4

[15] = Postemergence, 500 g ai/ha, 0 to 100 scale, 0 no effect, 100 complete control
[16] = Postemergence, 2000 g ai/ha, 0 to 100 scale, 0 no effect, 100 complete control
[17] = Preemergence, 500 g ai/ha, visual rating, 0 to 100 scale (0 no effect, 100 complete control)
[18] = Preemergence, 2000 g ai/ha, 0 to 100 scale, 0 no effect, 100 complete control
[19] = Postemergence, 500 g ai/ha, visual rating after 13 to 15 days, scale 0 (no effect) to 100 (complete control)
[20] = postemergence, 125 g ai/ha, visual rating, scale 0 (no effect) to 100 (complete control)
[21] = preemergence, 125 g ai/ha, 0 to 100 scale, 0 is no effect, 100 is complete control
[22] = Postemergence, 500 g ai/ha, visual rating after 13 to 15 days
[23] = postemergence, 125 g ai/ha, visual rating
[24] = Preemergence, 500 g ai/ha, scale 0 to 100

## CCn1nc(C(C)(C)C)cc1C(=O)Nc1cccc(C(=O)OC)c1C [Compound 87]
[1]
  Sedge, Umbrella plant response rating: 80
Large crabgrass [2]; [15]
  Crabgrass, Large plant response rating: 20
Large crabgrass [2]; [16]
  Plant response rating, Crabgrass, Large: 60
Large crabgrass [2]; [17]
  Crabgrass, Large plant response rating: 90
Large crabgrass [2]; [18]
  Crabgrass, Large plant response rating: 95
Velvetleaf [3]; [19]
  Plant response rating, Velvetleaf: 0
Velvetleaf [3]; [20]
  Velvetleaf plant response rating: 0
Velvetleaf [3]; [21]
  Plant response rating, Velvetleaf: 0
wheat; [22]
  Plant response rating, Wheat: 0
wheat; [23]
  Wheat plant response rating: 0
Redroot pigweed; [15]
  Pigweed plant response rating: 10
Redroot pigweed; [16]
  Plant response rating, Pigweed: 35
Redroot pigweed; [17]
  Pigweed plant response rating: 60
Redroot pigweed; [18]
  Pigweed plant response rating: 95
lambsquarters; [19]
  Plant response rating, Lambsquarters: 0
lambsquarters; [20]
  Lambsquarters plant response rating: 0
lambsquarters; [21]
  Plant response rating, Lambsquarters: 70
corn; [19]
  Plant response rating, Corn: 0
corn; [24]
  Corn plant response rating: 0
corn; [20]
  Corn plant response rating: 0
corn; [21]
  Plant response rating, Corn: 0
ducksalad
  Ducksalad plant response rating: 20
pigweed; [19]
  Plant response rating, Pigweed: 0
pigweed; [20]
  Pigweed plant response rating: 0
pigweed; [21]
  Plant response rating, Pigweed: 40
Barnyardgrass [4]; [15]
  Barnyardgrass plant response rating: 15
Barnyardgrass [4]; [16]
  Plant response rating, Barnyardgrass: 55
Barnyardgrass [4]; [17]
  Barnyardgrass plant response rating: 55
Barnyardgrass [4]; [18]
  Barnyardgrass plant response rating: 90
Rice [5]
  Plant response rating, Rice: 0
Barnyardgrass [6]; [19]
  Plant response rating, Barnyardgrass: 0
Barnyardgrass [6]; [24]
  Barnyardgrass plant response rating: 70
Barnyardgrass [6]; [20]
  Barnyardgrass plant response rating: 0
Barnyardgrass [6]; [21]
  Plant response rating, Barnyardgrass: 20
Barnyardgrass [7]
  Barnyardgrass plant response rating: 20
Rice [8]
  Rice plant response rating: 10
Morningglory [9]; [15]
  Morningglory plant response rating: 15
Morningglory [9]; [16]
  Plant response rating, Morningglory: 20
Morningglory [9]; [17]
  Morningglory plant response rating: 15
Morningglory [9]; [18]
  Morningglory plant response rating: 15
blackgrass; [22]
  Plant response rating, Blackgrass: 0
blackgrass; [23]
  Blackgrass plant response rating: 0
Morningglory [10]; [19]
  Plant response rating, Morningglory: 0
Morningglory [10]; [20]
  Morningglory plant response rating: 0
Morningglory [10]; [21]
  Plant response rating, Morningglory: 0
cocklebur; [19]
  Plant response rating, Cocklebur: 0
cocklebur; [24]
  Cocklebur plant response rating: 0
cocklebur; [20]
  Cocklebur plant response rating: 0
cocklebur; [21]
  Plant response rating, Cocklebur: 0
Giant foxtail [11]; [15]
  Foxtail, Giant plant response rating: 20
Giant foxtail [11]; [16]
  Plant response rating, Foxtail, Giant: 50
Giant foxtail [11]; [17]
  Foxtail, Giant plant response rating: 35
Giant foxtail [11]; [18]
  Foxtail, Giant plant response rating: 90
Large crabgrass [12]; [19]
  Plant response rating, Crabgrass, Large: 60
Large crabgrass [12]; [24]
  Crabgrass, Large plant response rating: 100
Large crabgrass [12]; [20]
  Crabgrass, Large plant response rating: 0
Large crabgrass [12]; [21]
  Plant response rating, Crabgrass, Large: 90
Velvetleaf [13]; [15]
  Velvetleaf plant response rating: 10
Velvetleaf [13]; [16]
  Plant response rating, Velvetleaf: 25
Velvetleaf [13]; [17]
  Velvetleaf plant response rating: 25
Velvetleaf [13]; Preemergence, 2000 g ai/ha, visual rating, 0 to 100 scale (0 no effect, 100 complete control)
  Velvetleaf plant response rating: 65
Surinam grass; [19]
  Plant response rating, Surinam Grass: 0
Surinam grass; [20]
  Surinam Grass plant response rating: 0
Surinam grass; [21]
  Plant response rating, Surinam Grass: 0
Giant foxtail [14]; [19]
  Plant response rating, Foxtail, Giant: 0
Giant foxtail [14]; [24]
  Foxtail, Giant plant response rating: 80
Giant foxtail [14]; [20]
  Foxtail, Giant plant response rating: 0
Giant foxtail [14]; [21]
  Plant response rating, Foxtail, Giant: 10
Wild oat; [22]
  Plant response rating, Oat, Wild: 0
Wild oat; [23]
  Oat, Wild plant response rating: 0
